Laboratory results: patent US6011041A, “Use of anhydrovinblastine” (priority 1996, dated 2000)
Structures can show the parent of a compound that is named as a salt.

Experiments:
SKOV3 cells = assay: cytotoxicity on SKOV3 cells (FIG. 8); type: cell-based; conditions: Homo sapiens, SK-OV-3, 72 h; SKOV3, 3 day incubation
C-4 cells = assay: cytotoxicity on C-4 cells (FIG. 8); type: cell-based; conditions: 72 h; C-4, 3 day incubation
Protocol: A wide range of drug concentrations were exposed to tumour cells growing at log phase in 96-well microtitre plates. Cell concentrations depended on the cell line as well as the length of time to be cultured. Typically, P388 cells were plated at a concentration of 30,000, 2,000 and 750 cells per well for studies lasting 1, 3 and 7 days, respectively MCF7 cells were plated at a concentration of 7,000 and 1,500 cells per well for studies lasting 3 and 7 days, respectively. H460 cells were plated at a concentration of 2,500 and 1,000 cells per well for studies lasting 3 and 7 days, respectively. K562 cells were plated at a concentration of 1,500 and 10,000 cells per well for studies lasting 1 and 3 days, respectively. LS180 cells were plated at a concentration of 5,000 and […] cells per well for studies lasting 3 and 7 days, respectively. After plating all cell lines were incubated (CO2 incubator at 37° C., 5% CO2) for 24 hours prior to addition of the cytotoxic agent (See Table 1). Subsequently the plates were incubated for the indicated time period. […] After the sample was mixed through repeated pipetting, the colored product was measured using a plate reader operating at 570 nm. The absorbance values obtained for cells cultured in the absence of drug was assumed to represent 100% viability. […]

[1] = P388 tumour antitumor activity and maximum tolerated dose in BDF1 mice (FIGS. 6, 7); type: in vivo; conditions: mouse, in vivo, iv; BDF1 mice bearing P388 tumors, single i.v. injection
Protocol: (§1) Antitumour studies in mice focused on the P388 leukemia model. […] This is an ascitic tumour model that was generated by intraperitoneal inoculation of 1×10^6 P388 cells (derived from culture, with an original cell line obtained from the NCI tumour repository) in BDF1 mice (Charles Rivers). One day after tumour cell inoculation, mice were treated with a single intravenous injection of drug. Animal weight was monitored daily and tumour progression was measured as an increase in animal weight and through estimation of survival time. Therapy was described by a decrease in tumour progression and an increase in survival time relative to an untreated control group. Initial studies established the maximum therapeutic dose for AHVB. Subsequently comparative studies with vincristine and navelbine were initiated where animals were treated with each drug at the maximum therapeutic dose.
(§2) The in vivo antitumour activity of AHVB was compared to that of vincristine, navelbine in the BDF1-murine P388 model in the procedure as follows. P388 cells were derived from the ascities of previously injected female BDF1 mice (19-21 grams) P388 cells, from the NCI tumor repository were inoculated directly into mice. The cells arrive from NCI frozen in 1 ml aliquots. These samples were thawed rapidly at 37° C. and subsequently injected (within 1 hour) intraperitoneally into two mice, 0.5 ml per mouse. One week (7 days) after inoculation, the tumor cells were harvested by removing peritoneal fluid using a sterile syringe with a 22 gauge needle. The cells, pooled from two animals, were counted using a heamocytometer, diluted (RPMI media) to a concentration of 2×10^6 cells/ml and 0.5 ml was then re-injected into each of two BDF1 mice. Remaining cells were washed and placed into a DMSO containing media and frozen (in freezer packs that cool at a defined rate). This process was repeated weekly over a […]. Cells used for anti-tumor studies were collected from the third passage to the 20th passage. After the 20th passage the cells were no longer used for experimental studies. Newly established cells were derived from the frozen cells prepared as described above.
(§3) Groups (five mice per group) of female BDFI mice (Charles Rivers, Canada) were injected (intraperitoneal) with 10^6 P388 cells (as described above). One day after tumor cell inoculation, the mice were given a bolus intravenous injection of indicated drug via the lateral tail vein. […] Following administration of the test articles, animals were weighed daily for fourteen days and monitored for signs of stress twice daily for the first 14 days (once daily on weekends) and once daily for the remainder of the study. Severely distressed animals were terminated by CO2 asphyxiation and the time of death was recorded to occur on the following day. […]

P388 tumor = assay: as above; type: in vivo
Protocol: as §1, §2, §3

murine P388 leukemia = conditions: cited from earlier work
L1210 leukemia = conditions: cited from earlier work
[2] = system: cells derived from human lung cancer; conditions: cited from earlier work
[3] = system: non-small cell lung cancer; conditions: patients; cited from earlier work
human rhabdosarcomas = conditions: in vivo; cited from earlier work
tumour = conditions: alkaloids extracted from Vinca rosea; cited from earlier work
nerves = conditions: vs vinblastine, vindesine; cited from earlier work
[4] = relative to other vinca alkaloids; cited from earlier work
[5] = system: fast axoplasmic transport in nerve cells; conditions: cited from earlier work

## CCC1=CC2CN(CCc3c([nH]c4ccccc34)C(C(=O)OC)(c3cc4c(cc3OC)N(C)C3C(O)(C(=O)OC)C(OC(C)=O)C5(CC)C=CCN6CCC43C65)C2)C1 (stereo not drawn) [AHVB, 3',4'-anhydrovinblastine]
SKOV3 cells
  IC50: 4 µM
C-4 cells
  IC50: 0.02 µM
[1]
  MTD: 40 mg/kg
P388 tumor; BDF1 mice bearing P388, single i.v.
  times less toxic (on a weight basis) than vincristine: approximately 10 times
P388 tumor; maximum tolerated dose, AHVB 40 mg/kg vs vincristine 3 mg/kg, single i.v.
  antitumor activity (number of long term survivors, >60 days): significantly better than that observed for vincristine
P388 tumor; overall conclusion
  in vivo antitumor efficacy relative to other vinca alkaloids such as vincristine and navelbine: significant improvements in in vivo antitumor efficacy

## CCC1=C[C@@H]2CN(C1)Cc1c([nH]c3ccccc13)[C@@](C(=O)OC)(c1cc3c(cc1OC)N(C)[C@H]1[C@@](O)(C(=O)OC)[C@H](OC(C)=O)[C@]4(CC)C=CCN5CC[C@]31[C@@H]54)C2 [navelbine, 3',4'-didehydro-4'-deoxy-C'-norvincaleukoblastine-di-L-tartrate]
Murine P388 leukemia
  potency against murine P388 leukemia: less potent than vinbiastine and vincristine
L1210 leukemia
  potency against L1210 leukemia: less potent than vinbiastine and vincristine
[2]
  activity against cells derived from human lung cancer: active
[3]
  clinical utility in non-small cell lung cancer: support its utility in treating non-small cell lung cancer

## CC[C@]1(O)C[C@H]2CN(CCc3c([nH]c4ccccc34)[C@@](C(=O)OC)(c3cc4c(cc3OC)N(C=O)[C@H]3[C@@](O)(C(=O)OC)[C@H](OC(C)=O)[C@]5(CC)C=CCN6CC[C@]43[C@@H]65)C2)C1 [vincristine, Sulfate of 22-oxovincaleukoblastine]
Human rhabdosarcomas
  activity in human rhabdosarcomas transplanted in nude mice: very effective
tumour
  antitumour activity: significant antitumour activity
nerves
  uptake into nerves, times faster than the other drugs: 4 times
[4]
  terminal elimination phase of plasma clearance: extended terminal elimination phase of plasma clearance
[5]
  potency in blocking fast axoplasmic transport: more potent than vinblastine or vindesine
